This is an account of results in ChEMBL document CHEMBL4038298, “Ester- and amide-containing multiQACs: Exploring multicationic soft antimicrobial agents” (Bioorg Med Chem Lett, 2017).

By MIC is commonly meant the lowest concentration that inhibits growth of the organism.

Series [1] is described as follows: Solubility of the compound in buffer solution at pH 10 by LCMS analysis. Type of series: physicochemical.
The next series concerns Pseudomonas aeruginosa. In words: Antibacterial activity against Pseudomonas aeruginosa PAO1 incubated for 72 hrs. Type of series: functional. As to conditions: PAO1, 72 h.
Series [2] concerns Staphylococcus aureus. In words: Antibacterial activity against hospital-acquired methicillin-resistant Staphylococcus aureus ATCC 33592 incubated for 72 hrs. Type of series: functional. As to conditions: ATCC 33592, 72 h.
A short description of series [3]: Stability of the compound in pure water up to 72 hrs by LCMS analysis. Type of series: physicochemical. As to conditions: read-out: Stability.
Series [4] in a line: Stability in buffer solution at pH 10 after 16 hrs by LCMS analysis. Type of series: physicochemical. As to conditions: read-out: Stability.
For another series, the system named is Escherichia coli. Description: Antibacterial activity against Escherichia coli MC4100 incubated for 72 hrs. It is filed as functional. The following applies: str. K-12 substr. MC4100, 72 h.
Series [5] relates to Staphylococcus aureus. In words: Antibacterial activity against community acquired methicillin-resistant Staphylococcus aureus USA300-0114 incubated for 72 hrs. Type of series: functional. As to conditions: USA300-0114, 72 h.
A further series relates to Enterococcus faecalis. Description: Antibacterial activity against Enterococcus faecalis OG1RF incubated for 72 hrs. Type of series: functional.
Series [6] can be described thus: Stability in buffer solution assessed as decomposition at pH 10 by LCMS analysis. Type of series: physicochemical.
Series [7] is described as follows: Stability in buffer solution at pH 7 after 16 hrs by LCMS analysis. Type of series: physicochemical. The following applies: read-out: Stability.
The test system of series [8] is Staphylococcus aureus. In words: Antibacterial activity against methicillin-susceptible Staphylococcus aureus SH1000 incubated for 72 hrs. It is filed as functional. The following applies: SH1000, 72 h.
Series [9] can be described thus: Stability in buffer solution assessed as decomposition at pH 4 by LCMS analysis. Type of series: physicochemical.
Series [10] can be described thus: Half life at pH 7 buffer solution by LCMS method.
Series [11] can be described thus: Stability of the compound in pure water by LCMS method. It is filed as physicochemical.
Series [12] can be described thus: Ratio of MIC for community acquired methicillin-resistant Staphylococcus aureus USA300-0114 to HC20 for sheep RBC assessed as compound concentration required for <20% hemolysis.
Series [13] can be described thus: Ratio of MIC for Enterococcus faecalis OG1RF to HC20 for sheep RBC assessed as compound concentration required for <20% hemolysis.

Some results are limits rather than exact numbers.

Regarding `CCCCCCCCCCNC(=O)C[N+](C)(C)CCN1CC[N+](C)(CC(=O)NCCCCCCCCCC)CC1.[Br-].[Br-]`, the solubility result in series [1] is “Insoluble”. The MIC was found to be 2 µM in the series with Pseudomonas aeruginosa; 0.5 µM against Staphylococcus aureus [2]; 1 µM in the series on Escherichia coli; 0.5 µM against Staphylococcus aureus [5]; 0.5 µM in the series with Enterococcus faecalis; 0.5 µM with Staphylococcus aureus [8]. Further, the remaining at 72 h in series [3] was no less than 90%. The remaining at 16 h in [4] and in series [7] was greater than 80% in each case. Moreover, in [6], the Stability entry is “Unstable”.

Take `CCCCCCCCCCOC(=O)C[N+](C)(C)CCN1CC[N+](C)(CC(=O)OCCCCCCCCCC)CC1.[Br-].[Br-]`: the MIC in the series on Pseudomonas aeruginosa was found to be 16 µM; in the series with Staphylococcus aureus [2], 2 µM; in the series on Escherichia coli it was 2 µM; against Staphylococcus aureus [5], 2 µM; in the series on Enterococcus faecalis, 4 µM; with Staphylococcus aureus [8], 2 µM. The remaining at 72 h in series [3] was no less than 90%. Also, the Stability result in [9] and in series [6] was “Unstable” each time. Also, the T1/2 in [10] was 3 h.

As to `CCCCCCCCCCOC(=O)C[N+](C)(C)CCCN(CCC[N+](C)(C)CC(=O)OCCCCCCCCCC)CCC[N+](C)(C)CC(=O)OCCCCCCCCCC.[Br-].[Br-].[Br-]`, the MIC with Pseudomonas aeruginosa was found to be 16 µM; with Staphylococcus aureus [2] it was 4 µM; against Escherichia coli, 8 µM; against Staphylococcus aureus [5], 4 µM; in the series on Enterococcus faecalis, 8 µM; against Staphylococcus aureus [8], 2 µM. In series [3], the remaining at 72 h is no less than 90%. Also, the Stability entry in series [9] and in series [6] was “Unstable” each time. The T1/2 in series [10] stood at 3 h.

Turning to `CCCCCCCCCCCCCCOC(=O)C[N+](C)(C)CCCN(CCC[N+](C)(C)CC(=O)OCCCCCCCCCCCCCC)CCC[N+](C)(C)CC(=O)OCCCCCCCCCCCCCC.[Br-].[Br-].[Br-]`, the Stability entry in series [11] is on record as “Stable”. Further, the MIC against Pseudomonas aeruginosa amounted to 250 µM; in the series on Staphylococcus aureus [2], 32 µM; against Escherichia coli, 32 µM; with Staphylococcus aureus [5] it was 16 µM; in the series on Enterococcus faecalis it was 16 µM; in the series with Staphylococcus aureus [8], 125 µM. Further, the Ratio in series [12] and in [13] was 4 throughout.

For `CCCCCCOC(=O)C[N+](C)(C)CCCN(CCC[N+](C)(C)CC(=O)OCCCCCC)CCC[N+](C)(C)CC(=O)OCCCCCC.[Br-].[Br-].[Br-]`, in series [11], the Stability entry is recorded as “Stable”. The MIC with Pseudomonas aeruginosa is greater than 250 µM; in the series with Staphylococcus aureus [2] it was 250 µM; against Escherichia coli, 250 µM; in the series with Staphylococcus aureus [5], 63 µM; against Enterococcus faecalis, 250 µM; against Staphylococcus aureus [8], 63 µM.

Turning to `CCCCCCCCCOC(=O)C[N+](C)(C)Cc1ccccc1.[Br-]`, the Stability entry in series [11] is given as “Stable”. Further, the MIC against Pseudomonas aeruginosa is greater than 250 µM; against Staphylococcus aureus [2] it was 63 µM; against Escherichia coli it was 125 µM; in the series on Staphylococcus aureus [5], 32 µM; with Enterococcus faecalis, 125 µM; against Staphylococcus aureus [8], 32 µM.

As to `CCCCCCCCOC(=O)C[N+](C)(C)CCCN(CCC[N+](C)(C)CC(=O)OCCCCCCCC)CCC[N+](C)(C)CC(=O)OCCCCCCCC.[Br-].[Br-].[Br-]`, in series [11], the Stability entry is on record as “Stable”. Moreover, the MIC stood at 63 µM with Pseudomonas aeruginosa; 4 µM with Staphylococcus aureus [2]; 8 µM with Escherichia coli; 4 µM against Staphylococcus aureus [5]; 8 µM with Enterococcus faecalis; 2 µM against Staphylococcus aureus [8].

With `CCCCCCCCCCCCCCOC(=O)C[N+](C)(C)CCN1CC[N+](C)(CC(=O)OCCCCCCCCCCCCCC)CC1.[Br-].[Br-]`, the Stability result in [11] was “Stable”. Further, the MIC in the series with Pseudomonas aeruginosa is greater than 250 µM; in the series with Staphylococcus aureus [2] it was greater than 250 µM; against Escherichia coli, greater than 250 µM; in the series with Staphylococcus aureus [5], 250 µM; with Enterococcus faecalis, greater than 250 µM; in the series on Staphylococcus aureus [8] it was greater than 250 µM.

Consider `CCCCCCCCCCNC(=O)C[N+](C)(C)CC[N+](C)(C)CC(=O)NCCCCCCCCCC.[Br-].[Br-]`, for which the Stability result in [11] is reported as “Stable”. For the same compound, the MIC stood at 2 µM with Pseudomonas aeruginosa; 1 µM against Staphylococcus aureus [2]; 1 µM in the series with Escherichia coli; 0.5 µM in the series on Staphylococcus aureus [5]; 1 µM against Enterococcus faecalis; 1 µM in the series on Staphylococcus aureus [8].

Consider `CCCCCCCCCCOC(=O)C[N+](C)(C)CCC[N+](C)(CCC[N+](C)(C)CC(=O)OCCCCCCCCCC)CC(=O)OCCCCCCCCCC.[Br-].[Br-].[Br-]`, for which the Stability entry in [11] is given as “Stable”. Moreover, the MIC worked out at 16 µM with Pseudomonas aeruginosa; 4 µM in the series on Staphylococcus aureus [2]; 8 µM in the series on Escherichia coli; 4 µM in the series on Staphylococcus aureus [5]; 8 µM in the series with Enterococcus faecalis; 4 µM in the series on Staphylococcus aureus [8].

Regarding `CCCCCCOC(=O)C[N+](C)(C)CCN1CC[N+](C)(CC(=O)OCCCCCC)CC1.[Br-].[Br-]`, the Stability result in series [11] is listed as “Stable”. Further, the MIC in the series with Pseudomonas aeruginosa, in the series on Staphylococcus aureus [2], against Escherichia coli, against Staphylococcus aureus [5], against Enterococcus faecalis and against Staphylococcus aureus [8] was greater than 250 µM throughout.

For the compound `CCCCCCCCCCCCOC(=O)C[N+](C)(C)Cc1ccccc1.[Br-]`, the Stability result in series [11] was “Stable”. The MIC in the series with Pseudomonas aeruginosa stood at 63 µM; against Staphylococcus aureus [2], 2 µM; against Escherichia coli, 16 µM; in the series on Staphylococcus aureus [5], 2 µM; against Enterococcus faecalis it was 4 µM; with Staphylococcus aureus [8], 2 µM.

For `CCCCCCCCCCCCCCOC(=O)C[N+](C)(C)CCC[N+](C)(CCC[N+](C)(C)CC(=O)OCCCCCCCCCCCCCC)CC(=O)OCCCCCCCCCCCCCC.[Br-].[Br-].[Br-]`, in series [11], the Stability entry was “Stable”. In addition, the MIC was 250 µM against Pseudomonas aeruginosa; 32 µM against Staphylococcus aureus [2]; 63 µM in the series with Escherichia coli; 16 µM against Staphylococcus aureus [5]; 32 µM against Enterococcus faecalis; 63 µM against Staphylococcus aureus [8]. For the same compound, the Ratio in [12] was 4.

Consider `CCCCCCCCCCCCCCOC(=O)C[N+](C)(C)Cc1ccccc1.[Br-]`, for which, in series [11], the Stability result is recorded as “Stable”. Also, the MIC is 250 µM against Pseudomonas aeruginosa; 1 µM in the series on Staphylococcus aureus [2]; 8 µM in the series on Escherichia coli; 2 µM in the series on Staphylococcus aureus [5]; 4 µM in the series on Enterococcus faecalis; 1 µM against Staphylococcus aureus [8].

Consider `CCCCCCCCCCNC(=O)C[N+](C)(C)CCCN(CCC[N+](C)(C)CC(=O)NCCCCCCCCCC)CCC[N+](C)(C)CC(=O)NCCCCCCCCCC.[Br-].[Br-].[Br-]`, for which the solubility entry in series [1] is on record as “Insoluble”. The MIC against Pseudomonas aeruginosa was determined as 8 µM; against Staphylococcus aureus [2] it was 1 µM; against Escherichia coli, 1 µM; in the series with Staphylococcus aureus [5] it was 0.5 µM; in the series with Enterococcus faecalis, 1 µM; in the series with Staphylococcus aureus [8] it was 1 µM. Also, the remaining at 72 h in [3] was no less than 90%. The remaining at 16 h in series [4] and in series [7] was greater than 80% in each case. Further, the Stability result in [6] is given as “Unstable”.
